Data on 31 molecules can be found in ChEMBL document CHEMBL4619796, “Discovery of 3-Quinazolin-4(3H)-on-3-yl-2,N-dimethylpropanamides as Orally Active and Selective PI3Kα Inhibitors” (ACS Med Chem Lett, 2020).

For experiment [1], the species on record is Homo sapiens. Nature of the experiment: Selectivity ratio of IC50 for PI3Kbeta (unknown origin) using PIP2:3PS peptide as substrate preincubated for 15 mins followed by ATP addition at Km concentration and further incubated for 120 mins by ADP-Glo assay to IC50 for PI3Kalpha (unknown origin) using PIP2:3PS peptide as substrate preincubated for 15 mins followed by ATP addition at Km concentration and further incubated for 150 mins by ADP-Glo assay.

Experiment [2] concerns the target Phosphatidylinositol 4,5-bisphosphate 3-kinase catalytic subunit alpha isoform (Homo sapiens, UniProt P42336). The experiment is described as follows: Inhibition of PI3Kalpha (unknown origin) using PIP2:3PS peptide as substrate preincubated for 15 mins followed by ATP addition at Km concentration and further incubated for 150 mins by ADP-Glo assay.
Experiment [3] is described as follows: Inhibition of PI3K in human MCF7 cells assessed as reduction in AKT phosphorylation at residue S473 incubated for 2 hrs followed by insulin addition by ELISA. The conditions noted are these: MCF7, 2 h. The class given is cell-based.
Experiment [4] is filed under the species Homo sapiens. The experiment is described as follows: Selectivity ratio of IC50 for PI3Kdelta (unknown origin) using PIP2:3PS peptide as substrate preincubated for 15 mins followed by ATP addition at Km concentration and further incubated for 120 mins by ADP-Glo assay to IC50 for PI3Kalpha (unknown origin) using PIP2:3PS peptide as substrate preincubated for 15 mins followed by ATP addition at Km concentration and further incubated for 150 mins by ADP-Glo assay.

For experiment [5], the species on record is Homo sapiens. Nature of the experiment: Selectivity ratio of IC50 for PI3Kgamma (unknown origin) using PIP2:3PS peptide as substrate preincubated for 15 mins followed by ATP addition at Km concentration and further incubated for 120 mins by ADP-Glo assay to IC50 for PI3Kalpha (unknown origin) using PIP2:3PS peptide as substrate preincubated for 15 mins followed by ATP addition at Km concentration and further incubated for 150 mins by ADP-Glo assay.

Where only a bound is given, the exact number is not on record here.

Phosphatidylinositol 4,5-bisphosphate 3-kinase catalytic subunit alpha isoform, sequence (P42336 whole entry, canonical isoform): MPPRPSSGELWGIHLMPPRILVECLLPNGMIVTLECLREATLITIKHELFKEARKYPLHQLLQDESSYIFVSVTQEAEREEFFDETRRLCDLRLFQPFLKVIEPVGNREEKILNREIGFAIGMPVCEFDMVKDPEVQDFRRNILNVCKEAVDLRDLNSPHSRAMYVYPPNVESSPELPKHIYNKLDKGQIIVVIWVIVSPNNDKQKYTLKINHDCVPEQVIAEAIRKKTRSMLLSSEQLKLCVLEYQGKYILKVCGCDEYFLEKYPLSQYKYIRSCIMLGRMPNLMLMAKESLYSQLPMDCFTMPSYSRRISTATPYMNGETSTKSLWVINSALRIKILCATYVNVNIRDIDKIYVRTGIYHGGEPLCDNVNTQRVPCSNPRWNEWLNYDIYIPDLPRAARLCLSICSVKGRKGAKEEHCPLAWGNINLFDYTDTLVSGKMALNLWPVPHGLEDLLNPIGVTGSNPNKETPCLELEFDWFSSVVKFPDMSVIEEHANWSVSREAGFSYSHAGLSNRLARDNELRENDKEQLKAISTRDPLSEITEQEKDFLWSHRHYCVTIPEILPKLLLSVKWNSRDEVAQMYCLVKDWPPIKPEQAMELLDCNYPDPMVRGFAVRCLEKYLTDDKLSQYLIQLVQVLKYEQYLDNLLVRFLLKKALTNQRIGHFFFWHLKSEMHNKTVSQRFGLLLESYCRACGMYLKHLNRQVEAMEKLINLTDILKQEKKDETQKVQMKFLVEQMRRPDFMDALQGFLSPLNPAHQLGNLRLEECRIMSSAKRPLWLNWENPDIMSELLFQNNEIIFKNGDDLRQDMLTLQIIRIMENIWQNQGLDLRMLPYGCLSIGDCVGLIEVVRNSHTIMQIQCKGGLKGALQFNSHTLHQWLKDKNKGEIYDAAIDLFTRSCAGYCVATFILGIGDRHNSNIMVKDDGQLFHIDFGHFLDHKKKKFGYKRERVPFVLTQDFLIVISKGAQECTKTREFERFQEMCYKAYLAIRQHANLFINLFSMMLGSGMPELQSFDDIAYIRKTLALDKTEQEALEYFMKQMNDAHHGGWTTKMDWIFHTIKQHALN

Take `CNC(=O)[C@H](C)Cn1cnc2ccc(-c3cnc(OC)c(NS(=O)(=O)c4sccc4C)c3)cc2c1=O`: in the experiment listed under Homo sapiens [1], the Ratio IC50 turned out to be 43.1. The same molecule gave an IC50 in experiment [2] of 4.1 nM.

`COc1ncc(-c2ccc3ncn(C[C@@H](C)C(=O)NC4CC4)c(=O)c3c2)cc1NS(=O)(=O)c1ccc(F)cc1Cl`: the figures for the IC50 in experiment [3] and in experiment [2] were 170 nM and 2.7 nM, respectively. Moreover, the Ratio IC50 worked out at 224 in the experiment listed under Homo sapiens [1], 2.61 in the experiment listed under Homo sapiens [4] and 5.44 in the experiment filed under Homo sapiens [5].

As for `CCc1ncc(-c2ccc3ncn(C[C@@H](C)C(=O)NC)c(=O)c3c2)cc1NS(=O)(=O)c1ccc(F)cc1Cl`, the values for the IC50 in experiment [3] and in experiment [2] were 347 nM and 6 nM, respectively. Moreover, the Ratio IC50 in the experiment listed under Homo sapiens [1] was 309; in the experiment listed under Homo sapiens [4], 13.8; in the experiment listed under Homo sapiens [5], 14.4.

`CNC(=O)[C@H](C)Cn1cnc2ccc(-c3cnc(OC)c(NS(=O)(=O)c4sc(C)nc4C)c3)cc2c1=O`: the IC50 was 10.9 nM in experiment [3] and 0.5 nM in experiment [2]. The Ratio IC50 in the experiment listed under Homo sapiens [1] was 115; in the experiment listed under Homo sapiens [4], 2.08; in the experiment listed under Homo sapiens [5] it was 11.7.

Take `COc1ncc(-c2ccc3ncn(C[C@@H](C)C(=O)NCCF)c(=O)c3c2)cc1NS(=O)(=O)c1ccc(F)cc1Cl`: the IC50 turned out to be 67.4 nM in experiment [3] and 2.5 nM in experiment [2]. Also, the Ratio IC50 was found to be 162 in the experiment filed under Homo sapiens [1], 7.61 in the experiment listed under Homo sapiens [4] and 7.41 in the experiment listed under Homo sapiens [5].

Regarding `COc1ncc(-c2ccc3ncn(C[C@@H](C)C(=O)N4CCOCC4)c(=O)c3c2)cc1NS(=O)(=O)c1ccc(F)cc1Cl`, the Ratio IC50 in the experiment listed under Homo sapiens [1] amounted to 18.3; in the experiment listed under Homo sapiens [4], 0.38; in the experiment listed under Homo sapiens [5], 0.71. This molecule displayed an IC50 in experiment [2] of 11.5 nM.

For `CNC(=O)[C@H](C)Cn1cnc2ccc(-c3cnc(OC(C)C)c(NS(=O)(=O)c4ccc(F)cc4Cl)c3)cc2c1=O`, in experiment [3], the IC50 turned out to be 387 nM.

As to `CCC(Cn1cnc2ccc(-c3cnc(OC)c(NS(=O)(=O)c4ccc(F)cc4Cl)c3)cc2c1=O)C(N)=O` (racemic), the IC50 in experiment [3] came to 52.3 nM. Moreover, the Ratio IC50 in the experiment listed under Homo sapiens [1] was found to be 19.3.

As for `CNC(=O)[C@H](C)Cn1cnc2ccc(-c3cnc(OC)c(NS(=O)(=O)c4cc(C(F)(F)F)cc(C(F)(F)F)c4)c3)cc2c1=O`, the Ratio IC50 in the experiment filed under Homo sapiens [1] came out at 109; in the experiment filed under Homo sapiens [4], 19.4; in the experiment listed under Homo sapiens [5] it was 17.3. The molecule further had a 50% inhibitory concentration (IC50) in experiment [2] of 20.8 nM.

With `CCC(CC)NC(=O)[C@H](C)Cn1cnc2ccc(-c3cnc(OC)c(NS(=O)(=O)c4ccc(F)cc4Cl)c3)cc2c1=O`, the values for the IC50 in experiment [3] and in experiment [2] were 373 nM and 19.6 nM, respectively. Moreover, the results for the Ratio IC50 in the experiment listed under Homo sapiens [1], in the experiment listed under Homo sapiens [4] and in the experiment filed under Homo sapiens [5] were 259, 3.11 and 7.92, respectively.

For `CCNC(=O)[C@H](C)Cn1cnc2ccc(-c3cnc(OC)c(NS(=O)(=O)c4ccc(F)cc4Cl)c3)cc2c1=O`, the IC50 in experiment [3] was 40.5 nM; in experiment [2], 3.5 nM. The results for the Ratio IC50 in the experiment filed under Homo sapiens [1], in the experiment filed under Homo sapiens [4] and in the experiment listed under Homo sapiens [5] were 187, 5.63 and 6.28, respectively.

In the case of `COc1ncc(-c2ccc3ncn(CC4(C(N)=O)CC4)c(=O)c3c2)cc1NS(=O)(=O)c1ccc(F)cc1Cl`, the IC50 in experiment [3] is 39.9 nM. Further, the Ratio IC50 is 14.4 in the experiment listed under Homo sapiens [1], 0.35 in the experiment listed under Homo sapiens [4] and 3.61 in the experiment filed under Homo sapiens [5].

As to `CNC(=O)C(C)Cn1cnc2ccc(-c3cnc(C(F)(F)F)c(NS(=O)(=O)c4ccc(F)cc4Cl)c3)cc2c1=O` (racemic), the IC50 stood at 972 nM in experiment [3] and 0.6 nM in experiment [2]. Also, the Ratio IC50 in the experiment filed under Homo sapiens [1] came out at 196.

Take `CNC(=O)[C@H](C)Cn1cnc2ccc(-c3cnc(N(C)C)c(NS(=O)(=O)c4ccc(F)cc4Cl)c3)cc2c1=O`: in the experiment filed under Homo sapiens [1], the Ratio IC50 turned out to be 59.5. In addition, the IC50 in experiment [2] was 8.4 nM.

In the case of `COc1ncc(-c2ccc3ncn(C[C@@H](C)C(=O)NC4COC4)c(=O)c3c2)cc1NS(=O)(=O)c1ccc(F)cc1Cl`, the IC50 in experiment [3] is 190 nM; in experiment [2], 2.1 nM. For the same molecule, the Ratio IC50 in the experiment filed under Homo sapiens [1] amounted to 262.

Regarding `CNC(=O)[C@H](C)Cn1cnc2ccc(-c3cnc(OC)c(NS(=O)(=O)c4cccnc4)c3)cc2c1=O`, in experiment [3], the IC50 was more than 1000 nM.

For the molecule `CNC(=O)C(C)Cn1cnc2ccc(-c3cnc(OC(F)(F)F)c(NS(=O)(=O)c4ccc(F)cc4Cl)c3)cc2c1=O` (racemic), the IC50 in experiment [3] is more than 1000 nM. Besides, the Ratio IC50 in the experiment listed under Homo sapiens [1] was determined as 94.9.

Regarding `CNC(=O)[C@H](C)Cn1cnc2ccc(-c3cnc(N)c(NS(=O)(=O)c4ccc(F)cc4Cl)c3)cc2c1=O`, the IC50 in experiment [3] is more than 1000 nM; in experiment [2], 19.3 nM. Further, the Ratio IC50 in the experiment listed under Homo sapiens [1] was determined as 283.

As to `COc1ncc(-c2ccc3ncn(CC(N)C(N)=O)c(=O)c3c2)cc1NS(=O)(=O)c1ccc(F)cc1Cl` (racemic), in experiment [3], the IC50 worked out at 134 nM. Further, the Ratio IC50 came out at 33.9 in the experiment listed under Homo sapiens [1], 4.75 in the experiment listed under Homo sapiens [4] and 7.39 in the experiment filed under Homo sapiens [5].

Consider `COc1ncc(-c2ccc3ncn(CC(F)(F)C(N)=O)c(=O)c3c2)cc1NS(=O)(=O)c1ccc(F)cc1Cl`, for which the values for the Ratio IC50 in the experiment filed under Homo sapiens [1], in the experiment filed under Homo sapiens [4] and in the experiment listed under Homo sapiens [5] were 46.6, 2.69 and 3.15, respectively. Further, the IC50 in experiment [2] came out at 2.7 nM.

As for `CNC(=O)[C@H](C)Cn1cnc2ccc(-c3cnc(OC)c(NS(=O)(=O)c4c(C)noc4C)c3)cc2c1=O`, the Ratio IC50 in the experiment filed under Homo sapiens [1] was found to be 146; in the experiment listed under Homo sapiens [4], 4.52; in the experiment filed under Homo sapiens [5], 10. In experiment [2], this molecule returned an IC50 of 4.3 nM.

The molecule `CNC(=O)[C@@H](C)Cn1cnc2ccc(-c3cnc(OC)c(NS(=O)(=O)c4ccc(F)cc4Cl)c3)cc2c1=O` returned an IC50 in experiment [2] of 2.3 nM.

For `COc1ncc(-c2ccc3ncn(CCCC(N)=O)c(=O)c3c2)cc1NS(=O)(=O)c1ccc(F)cc1Cl`, the IC50 in experiment [3] was 9.43 nM; in experiment [2], 1.1 nM. The Ratio IC50 in the experiment listed under Homo sapiens [1] is 30; in the experiment filed under Homo sapiens [4], 1.91.

With `COc1ncc(-c2ccc3ncn(C[C@@H](C)C(=O)N(C)C(C)C)c(=O)c3c2)cc1NS(=O)(=O)c1ccc(F)cc1Cl`, the Ratio IC50 worked out at 16.6 in the experiment filed under Homo sapiens [1], 0.78 in the experiment filed under Homo sapiens [4] and 1.06 in the experiment listed under Homo sapiens [5]. In experiment [2], this molecule yielded an IC50 of 19.6 nM.

As to `COc1ncc(-c2ccc3ncn(C[C@@H](C)C(=O)NC4CC4(F)F)c(=O)c3c2)cc1NS(=O)(=O)c1ccc(F)cc1Cl` (stereo partly drawn), the Ratio IC50 in the experiment filed under Homo sapiens [1] amounted to 116. Moreover, the IC50 in experiment [2] is 6.2 nM.

As for `CNC(=O)[C@H](C)Cn1cnc2ccc(-c3cnc(OC)c(NS(=O)(=O)c4ccc(Cl)c(Cl)c4)c3)cc2c1=O`, the Ratio IC50 in the experiment listed under Homo sapiens [1] is 6.62. In experiment [2], this molecule came in with an IC50 of 10 nM.

With `CCOc1ncc(-c2ccc3ncn(C[C@@H](C)C(=O)NC)c(=O)c3c2)cc1NS(=O)(=O)c1ccc(F)cc1Cl`, the IC50 in experiment [3] is 116 nM; in experiment [2], 13.7 nM. In addition, the Ratio IC50 in the experiment listed under Homo sapiens [1] came to 153.

For the molecule `CCN(CC)C(=O)[C@H](C)Cn1cnc2ccc(-c3cnc(OC)c(NS(=O)(=O)c4ccc(F)cc4Cl)c3)cc2c1=O`, the Ratio IC50 came out at 5.97 in the experiment filed under Homo sapiens [1], 0.63 in the experiment filed under Homo sapiens [4] and 1.04 in the experiment filed under Homo sapiens [5]. Further, the IC50 in experiment [2] amounted to 25.8 nM.

For the molecule `COc1ncc(-c2ccc3ncn(CC(C(N)=O)C(C)C)c(=O)c3c2)cc1NS(=O)(=O)c1ccc(F)cc1Cl` (racemic), the IC50 in experiment [3] was 125 nM. Further, the Ratio IC50 in the experiment listed under Homo sapiens [1] stood at 32.6.

`CNC(=O)[C@H](C)Cn1cnc2ccc(-c3cnc(OC4CC4)c(NS(=O)(=O)c4ccc(F)cc4Cl)c3)cc2c1=O`: the IC50 in experiment [3] was 55.3 nM.

As for `CNC(=O)[C@H](C)Cn1cnc2ccc(-c3cnc(COC)c(NS(=O)(=O)c4ccc(F)cc4Cl)c3)cc2c1=O`, the IC50 in experiment [3] and in experiment [2] was more than 1000 nM each time.
